In US9242928B2, “Compound, kinesin spindle protein inhibitor, and application thereof” (FUJITSU LIMITED, priority 2010, dated 2016):

Biological target: T1, human KSP motor domain (Uniprot P52732, residues 1-387) (Homo sapiens, UniProt P52732)
T1 construct: human KSP motor domain (Uniprot P52732, residues 1-387); His6; made in house; host or cells: E. coli BL21 Star (DE3)
T1 sequence (P52732 1-387): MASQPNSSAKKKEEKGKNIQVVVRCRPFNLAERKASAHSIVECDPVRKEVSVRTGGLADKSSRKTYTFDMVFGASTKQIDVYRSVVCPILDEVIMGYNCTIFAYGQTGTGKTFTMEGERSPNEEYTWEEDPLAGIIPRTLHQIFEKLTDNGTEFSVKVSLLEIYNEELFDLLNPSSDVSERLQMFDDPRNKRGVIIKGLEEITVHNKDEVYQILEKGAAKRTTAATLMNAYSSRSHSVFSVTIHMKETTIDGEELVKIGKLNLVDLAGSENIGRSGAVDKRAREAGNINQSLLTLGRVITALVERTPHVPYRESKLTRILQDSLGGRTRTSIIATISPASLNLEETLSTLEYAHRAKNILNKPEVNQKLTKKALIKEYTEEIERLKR
Experiment: Inhibitory activity against kinesin spindle protein (microtubule-stimulated ATPase, quinaldine red Pi detection, absorbance at 525 nm)
Type: biochemical
Settings: 30 nM kinesin spindle protein, 1 mM ATP, 37° C., 20 min
Method: Each of the compounds represented by Structural Formulas (1) to (4) was measured for inhibitory activity against a kinesin spindle protein by the following method referring to the methods described in Elizabeth B. Cogan et al., Analytical Biochemistry, 1999, 271, pp. 29-35 and Keith W. Rickert et al., Archives of Biochemistry and Biophysics, 2008, 469, pp. 220-231.
The human KSP motor domain (Uniprot P52732, residues 1-387) was cloned into the pRSETa vector (product of Invitrogen Co., Ltd) and expressed in E. coli BL21 Star (DE3) (product of Invitrogen Co., Ltd) with His6 tag for purification.
Each of the compounds represented by Structural Formulas (1) to (4) was prepared in 100% by mass DMSO (dimethylsulfoxide) at 100-fold concentration (100×). Then, the resulting mixture was diluted with 1.00% by mass DMSO to each of 0.001 mM, 0.003 mM, 0.01 mM, 0.03 mM, 0.1 mM, 0.3 mM, 1 mM, 3 mM, 10 mM and 30 mM.
A reaction mixture having a formulation described in the following Table 1 was prepared. Specifically, 28.5 μL of water, 1 μL ([…]) of the above-purified kinesin spindle protein, 5 μL of a 10× reaction buffer (150 mM PIPES (1,4-piperazine ethanesulfonic acid) (pH 7.0), 10 mM magnesium chloride, 10 mM EGTA (glycol ether diamine tetraacetate)), 10 μL of 5× microtubules solution (330 μg/mL microtubules, 15 mM PIPES (pH 7.0), 1 mM magnesium chloride, 10 μM Taxol) and 0.5 μL of the above-prepared 100× compound (the compound represented by Structural Formula (1), (2), (3) or (4)) were mixed together to prepare 45 μL of a reaction mixture, which was incubated at 37° C. for 10 min. Then, 5 μL of a 100×ATP solution (10 mM ATP, 10 mM PIPES (pH 7.0)) was added to the reaction mixture to initiate the reaction. Immediately after that, the reaction mixture was incubated at 37° C. for 20 min. […]
After the reaction, 150 μL of Quench C buffer (the formulation of which is given below) was added the reaction mixture to terminate the reaction, followed by incubating at room temperature for 5 min. Then, the reaction mixture was measured for absorbance at 525 nm with a microplate reader (SpectraMax, product of Molecular Devices Co., Ltd.). […]
The kinesin spindle protein decomposes ATP into ADP and Pi (phosphoric acid). […] Thus, the amount of the formed Pi can be measured by measuring the absorbance at 525 nm. With the absorbance at 525 nm of the high control (the amount of the formed Pi) being 100, comparing the absorbance of the high control with absorbance of test groups to which the above compounds have been added can determine whether the activity of the kinesin spindle protein is inhibited.
That is, the inhibitory rate of the activity of the kinesin spindle protein can be calculated from the following calculation formula. […]

CCN(CC)C(=O)CN(Cc1ccccc1)c1ccc2c(c1F)C=CC2(C)C [Structural Formula (1)]
Inhibitory rate (%) (compound concentration 10 μM): 44.5%

CCN(CC)C(=O)CN(Cc1ccccc1)c1ccc2c(c1F)CCC2=O [Structural Formula (2), 2-(benzyl(4-fluoro-1-oxo-2,3-dihydro-1H-inden-5-yl)amino)-N,N-diethylacetamide]
Inhibitory rate (%) (compound concentration 88 μM): 50%

CCN(CC)C(=O)CN(Cc1ccccc1)c1ccc2c(c1)C=CC2C (stereo not shown) [Structural Formula (3)]
Inhibitory rate (%) (compound concentration 39 μM): 50%

CC1C=Cc2cc(N(CC(=O)N(C)C)Cc3ccccc3)ccc21 (stereo not shown) [Structural Formula (4)]
Inhibitory rate (%) (compound concentration 100 μM): 79.8%
